Test results taken from ChEMBL document CHEMBL1148010, “Synthesis and biological evaluation of 2beta,3alpha-(substituted phenyl)nortropanes as potential norepinephrine transporter imaging agents” (Bioorg Med Chem Lett, 2007).

How the values were obtained:
[1] = target: Sodium-dependent dopamine transporter (Homo sapiens, UniProt Q01959); experiment: Displacement of [125I]RTI55 from human DAT expressed in HEK293 cells; assay type: cell-based
[2] = target: Sodium-dependent serotonin transporter (Homo sapiens, UniProt P31645); experiment: Displacement of [3H]citalopram from human SERT expressed in HEK293 cells; assay type: cell-based
[3] = target: Sodium-dependent noradrenaline transporter (Homo sapiens, UniProt P23975); experiment: Displacement of [3H]nisoxetine from human NET expressed in HEK293 cells; assay type: cell-based
[4] = target: Monoamine transporters; Norepinephrine & dopamine (Homo sapiens, UniProt Q01959+P23975); experiment: Selectivity of human NET over human DAT expressed in HEK293 cells; assay type: cell-based
[5] = target: Serotonin and norepinephrine transporters (SERT/NET) (Homo sapiens, UniProt P31645+P23975); experiment: Selectivity of human NET over human SERT expressed in HEK293 cells; assay type: cell-based
[6] = Drug level in Rhesus monkey plasma assessed as unmetabolized fractions at 30 mins; assay type: ADME, cell-free, Macaca mulatta; settings: read-out: Activity
[7] = Drug level in Rhesus monkey plasma assessed as unmetabolized fractions at 3 mins; assay type: ADME, cell-free, Macaca mulatta; settings: read-out: Activity
[8] = Drug level in Rhesus monkey plasma assessed as unmetabolized fractions at 10 mins; assay type: ADME, cell-free, Macaca mulatta; settings: read-out: Activity

Chain of Sodium-dependent noradrenaline transporter (P23975 whole entry): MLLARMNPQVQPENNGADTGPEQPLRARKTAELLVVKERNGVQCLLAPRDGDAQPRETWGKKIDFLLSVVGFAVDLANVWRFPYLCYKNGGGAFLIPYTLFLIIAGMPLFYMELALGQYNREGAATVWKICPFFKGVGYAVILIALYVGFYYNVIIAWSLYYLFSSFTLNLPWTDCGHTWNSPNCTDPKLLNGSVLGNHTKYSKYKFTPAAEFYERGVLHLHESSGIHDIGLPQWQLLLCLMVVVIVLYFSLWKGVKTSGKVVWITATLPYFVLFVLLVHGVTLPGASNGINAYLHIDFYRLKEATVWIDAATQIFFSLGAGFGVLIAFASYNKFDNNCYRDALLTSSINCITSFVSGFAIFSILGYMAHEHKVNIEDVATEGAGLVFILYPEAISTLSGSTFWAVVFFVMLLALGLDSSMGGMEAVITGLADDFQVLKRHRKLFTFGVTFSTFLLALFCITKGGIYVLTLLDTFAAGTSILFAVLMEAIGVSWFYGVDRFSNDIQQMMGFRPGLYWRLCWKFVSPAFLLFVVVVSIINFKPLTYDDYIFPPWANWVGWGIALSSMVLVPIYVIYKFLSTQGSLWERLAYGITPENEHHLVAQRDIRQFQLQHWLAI
Chain of Sodium-dependent serotonin transporter (P31645 whole entry): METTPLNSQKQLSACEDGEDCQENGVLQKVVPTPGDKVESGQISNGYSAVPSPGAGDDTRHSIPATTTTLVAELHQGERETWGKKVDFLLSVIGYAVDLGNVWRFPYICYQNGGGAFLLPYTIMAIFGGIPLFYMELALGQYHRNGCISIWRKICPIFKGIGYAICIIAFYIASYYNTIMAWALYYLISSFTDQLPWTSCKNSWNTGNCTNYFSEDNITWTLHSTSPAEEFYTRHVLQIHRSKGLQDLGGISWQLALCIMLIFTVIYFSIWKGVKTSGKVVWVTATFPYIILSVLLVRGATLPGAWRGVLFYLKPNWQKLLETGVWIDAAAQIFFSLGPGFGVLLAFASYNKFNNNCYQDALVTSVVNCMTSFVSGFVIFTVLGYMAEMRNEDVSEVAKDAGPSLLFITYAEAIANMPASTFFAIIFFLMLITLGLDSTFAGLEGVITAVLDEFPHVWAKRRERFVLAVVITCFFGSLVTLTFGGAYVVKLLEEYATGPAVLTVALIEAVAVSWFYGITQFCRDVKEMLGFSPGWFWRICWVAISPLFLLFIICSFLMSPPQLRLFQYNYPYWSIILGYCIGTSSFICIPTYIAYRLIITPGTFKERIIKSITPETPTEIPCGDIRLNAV
Chain of Sodium-dependent dopamine transporter (Q01959 whole entry): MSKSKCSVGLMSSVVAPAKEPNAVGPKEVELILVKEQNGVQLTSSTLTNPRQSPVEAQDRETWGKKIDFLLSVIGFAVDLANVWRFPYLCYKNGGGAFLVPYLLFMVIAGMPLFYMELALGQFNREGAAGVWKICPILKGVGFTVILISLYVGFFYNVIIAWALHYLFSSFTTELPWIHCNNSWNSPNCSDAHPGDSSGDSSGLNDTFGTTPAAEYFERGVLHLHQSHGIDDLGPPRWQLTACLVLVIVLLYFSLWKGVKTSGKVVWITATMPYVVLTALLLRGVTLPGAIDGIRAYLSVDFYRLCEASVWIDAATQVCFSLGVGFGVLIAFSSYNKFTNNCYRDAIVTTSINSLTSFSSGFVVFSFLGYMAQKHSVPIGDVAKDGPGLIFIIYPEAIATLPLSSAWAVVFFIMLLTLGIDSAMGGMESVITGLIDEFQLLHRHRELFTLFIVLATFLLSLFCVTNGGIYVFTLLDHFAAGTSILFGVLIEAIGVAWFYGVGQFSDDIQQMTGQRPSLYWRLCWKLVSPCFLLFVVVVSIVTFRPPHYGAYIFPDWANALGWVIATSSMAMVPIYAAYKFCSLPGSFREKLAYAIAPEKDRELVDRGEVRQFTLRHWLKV

Row | SMILES | Ki [1] [nM] | Ki [2] [nM] | Ki [3] [nM] | NET over DAT selectivity ratio (no unit) [4] [nM] | NET over SERT selectivity ratio [5] [nM] | remaining at 0.5 h [6] [%] | remaining at 0.05 h [7] [%] | remaining at 10 min [8] [%]
1 | COC(=O)[C@@H]1[C@H]2CC[C@H](C[C@H]1c1ccc(C)cc1)N2 | 11.5 | 136 | 4.88 | 2.3 | 28 |  |  | 
2 | Cc1ccc([C@@H]2C[C@H]3CC[C@@H](N3)[C@H]2C(=O)O[11CH3])cc1F |  |  |  |  |  | 1.6 | 25 | 7.5
3 | COC(=O)[C@@H]1[C@H]2CC[C@H](C[C@H]1c1ccc(C)c(F)c1)N2 | 6.42 | 42.8 | 1.78 | 3.6 | 24 |  |  | 
4 | C=Cc1ccc([C@@H]2C[C@H]3CC[C@@H](N3)[C@H]2C(=O)OC)cc1 | 10.1 | 9.04 | 4.67 | 2.2 | 1.9 |  |  | 
5 | C#Cc1ccc([C@@H]2C[C@H]3CC[C@@H](N3)[C@H]2C(=O)OC)cc1 | 2.26 | 3.45 | 1.86 | 1.2 | 1.8 |  |  | 
6 | COC(=O)[C@@H]1[C@H]2CC[C@H](C[C@H]1c1ccc(I)cc1)N2 | 2.25 | 4.16 | 1.98 | 1.1 | 2.1 |  |  | 
